Measurements published in US5871954A, “Fatty acid analog enzyme substrates” (Washington University, priority 1993, dated 1999).
Entries after “also recorded” stand apart in the source; their conditions may differ. Starred links: 1 amine or outer side, 2 acyl side, 3 side chain; linkers in the order of their positions; H or OH if unused. Non-standard residues stand in square brackets, D forms with d. No end group written: not given here. *: point of attachment. Tyr(125I) = 125I-iodotyrosine, O=C([C@H](Cc1ccc(O[*:3])c([125I])c1)N[*:1])[*:2]; 11‑(ethylthio)undecanoyl = CCSCCCCCCCCCCC(=O)*

What was measured:
wheat germ NMT = assay: in vitro wheat germ NMT myristoylation assay, kinetics with iodinated peptide GNAAS[125I]YRR; assay type: biochemical
Description: Myristoyl CoA and fatty acid analog CoA were generated by incubation of the fatty acid or analog with CoA, ATP and CoA ligase. This reaction mixture was added to wheat germ NMT and Gly-Asn-Ala-Ala-Ser-[^125 I]Tyr-Arg-Arg in the presence of 0.03% Triton® X-100. Reaction products were characterized by reverse phase HPLC and gamma counting.
The invention is illustrated in greater detail in the following Examples 1 to 15 by the synthesis and testing of representative compounds of the invention as myristoylating enzyme substrates. Accordingly, the invention is first illustrated in Examples 1 to 5 by the chemical synthesis of a sulfur-containing analog of myristic acid, namely 11-(ethylthio)undecanoicacid, CH3 CH2 --S--(CH2)10 COOH, which is then tested in vitro as a wheat germ NMT substrate. Wheat germ NMT is a protein similar to yeast NMT. The purity and chemical identity of the synthesized compound were examined using ^1 H and ^13 C NMR as well as mass spectroscopy. The assay that was used to characterize the substrate specificity of wheat germ NMT measures the rate of attachment of a radiolabelled fatty acid to an unlabelled peptide. The fatty acid analog synthesized was nonradioactive.
The in vitro assay for NMT activity requires the enzymatic generation of fatty acyl CoA. Since the Pseudomonas acyl CoA ligase is quite nonspecific [Shimizo et al., Anal. Biochem. 107, 193-198 (1980)] and is used in excess, it should equally well convert myristic acid and 11-(ethylthio)undecanoic acid to the corresponding CoA esters. It is, therefore, believed that the data represent the relative catalytic efficiency of fatty acyl CoA and analog CoA for wheat germ NMT.
Assays for NMT activity were performed using a procedure detailed previously by Towler and Glaser, Proc. Natl. Acad. Sci. USA 83, 2812-2816 (1986). Briefly, the in vitro assay measures the transfer of radiolabelled fatty acid from acyl CoA to a synthetic peptide substrate. The acylpeptide product is identified by reverse phase HPLC. Time and enzyme dependence were evaluated by varying the reaction time or the enzyme concentration. […] Fatty acid specificity was examined essentially as described by Towler et al., J. Biol. Chem. 262, 1030-1036 (1987), except that the peptide Gly-Ser-Ser-Lys-Ser-Lys-Pro-Lys rather than Gly-Asn-Ala-Ala-Ala-Ala-Arg-Arg was used to compare palmitate and myristate utilization by wheat germ NMT. This was necessary because of the presence of a large, peptide-independent peak which co-eluted with a palmitoyl-Gly-Asn-Ala-Ala-Ala-Ala-Arg-Arg standard. [^3 H]Palmitate and [^3 H]myristate were used in this comparison. [^14 C]fatty acids were used to compare C-10, C-12 and C-14 chain lengths. Fatty acyl CoA concentrations in these assays were determined by a modification of the method of Hosaka et al., Methods Enzymol. 71, 325-333 (1981).
Gly-Asn-Ala-Ala-Ser-[^125 I]Tyr-Arg-Arg as prepared in Example 2, above, was tested in an in vitro myristoylation system which was modified from that used with radiolabelled fatty acids. […] 20-fold more wheat germ NMT (480-fold purified as in Example 3, above) was used for these assays than for assays which employed [^3 H] myristate. […] Double reciprocal plots were generated for the iodinated peptide with both myristic acid and the sulfur analog by altering the peptide concentration in the presence of a constant amount of fatty acid or analog. […] The assays contained 0.03% Triton X-100 to maintain the solubility of the fatty acids.

[1] = C18 reverse phase HPLC elution of acyl peptides (hydrophobicity); assay type: physicochemical; settings: for elution earlier than the corresponding myristoyl peptide: acyl-GNAASYRR[125I]; for Elution Time: Table 2, C18 reverse phase HPLC; for elution time of fatty acyl derivative of GNAAAARR: HPLC
Description: The fatty acid analog acyl-peptide eluted 7 minutes earlier than the corresponding myristoyl peptide. The free peptide elutes in the void volume (3-5 minutes).
This difference was evident when the HPLC elution characteristics of fatty acyl peptides were examined. The elution time of a particular acyl-peptide depends strongly on the peptide sequence as well as on the acyl chain attached to that peptide. For example, the elution times of fatty acyl derivatives of GNAAAARR are (in minutes) decanoic acid, 9; dodecanoic acid, 18; myristic acid, 24; and palmitic acid, 30. Elution times for fatty acyl derivatives of GNAAS[^125 I]YRR are 23 and 28 minutes for C12 and C14 fatty acids, respectively (FIG. 2). […] Such a change could alter the biological activity of myristoyl proteins.
(§1) For these Examples, each analog synthesized is characterized by ^1 H and 13C NMR as well as mass spectroscopy. The analogs are then characterized kinetically as NMT substrates. Briefly, fatty acid analogs are converted to their CoA esters with Pseudomonas CoA ligase and incubated with the iodinated peptide GNAAS[^125 I]YRR and a source of NMT. […] The radiolabelled peptide is then used at concentrations which will lead to 50% enzyme saturation (i.e., at its Km) for the determination of fatty acid analog kinetic characteristics. Representative analogs with sulfur or oxygen in the backbone of the fatty acid chain serve as good substrates for NMT in vitro and will compete for incorporation of ^3 H labelled myri-state into yeast proteins in vivo. In addition, these analogs differ markedly in hydrophobicity from myri-state as measured both by C18 reverse phase HPLC elution profiles and by 2-octanol/water partition coefficients. The analog CH3 O (CH2)11 COOH, for example, partitions into water 20 fold better than myristate. It is believed that these analogs will be incorporated into mammalian acylproteins in vivo and that their incorporation into these proteins will drastically alter protein processing or targeting. It is further believed that the incorporation of fatty acid analogs of both myristate and palmitate into ester linked and phosphatidyl inositol glycan linked acylproteins will also dramatically alter their properties. Since many viral proteins and oncogenes are acylated, these compounds represent a new class of potential antiviral and antineoplastic agents.

yeast NMT = molecular target: T1, yeast NMT (Saccharomyces cerevisiae, UniProt P14743); assay: in vitro yeast NMT assay, kinetics of fatty acid analog substrates with iodinated peptide GNAAS[125I]YRR; assay type: biochemical; settings: for Peptide Vm / Acyl CoA Vm: Table 2, relative to myristate control 100%; for Peptide Vm: fatty acid analog at 15 μM; for Acyl CoA Vm: peptide at its Km
T1 construct: 11,000-fold purified preparation of yeast NMT; from tissue; host or cells: yeast
T1 sequence (P14743 1-455): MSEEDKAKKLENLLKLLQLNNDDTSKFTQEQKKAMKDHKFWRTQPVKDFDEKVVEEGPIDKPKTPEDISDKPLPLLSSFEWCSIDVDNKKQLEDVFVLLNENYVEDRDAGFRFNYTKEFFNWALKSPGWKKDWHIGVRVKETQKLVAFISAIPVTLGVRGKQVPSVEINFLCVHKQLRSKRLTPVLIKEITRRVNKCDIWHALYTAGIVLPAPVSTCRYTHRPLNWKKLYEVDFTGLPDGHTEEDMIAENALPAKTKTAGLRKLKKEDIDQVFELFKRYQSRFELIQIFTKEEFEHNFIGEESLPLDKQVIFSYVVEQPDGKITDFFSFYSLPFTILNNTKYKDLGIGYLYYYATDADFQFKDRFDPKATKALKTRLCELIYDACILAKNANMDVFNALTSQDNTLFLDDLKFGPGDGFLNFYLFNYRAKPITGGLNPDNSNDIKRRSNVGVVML
Description: Similar results were obtained using an 11,000-fold purified preparation of yeast NMT [Towler et al., Proc. Natl. Acad. Sci. USA 84, 2708-2712 (1987)].
Other illustrative examples of the oxy- and thio-substituted fatty acid analog substrate compounds of the invention were synthesized in Examples 6 to 14 and tested in Example 15 as substrates for the yeast NMT.
as §1

[2] = molecular target: T2, myristoyl CoA: protein N-myristoyl transferase (NMT) (Saccharomyces cerevisiae, UniProt P14743); assay: substrate activity for myristoylating enzyme (general statement); assay type: biochemical; settings: in words
T2 construct: CoA ester made in situ by Pseudomonas CoA ligase
T2 sequence (P14743 1-455): T1 sequence (P14743 1-455)
Description: Purification and use of this enzyme are described, for example, by Towler et al., Proc. Natl. Acad. Sci. USA 84, 2708-2712 (1987); J. Biol. Chem. 262, 1030-1036 (1987).
as §1, with “It is further believed that the incorporation of fatty acid analogs of both myristate and palmitate into ester linked and phosphatidyl inositol glycan linked acylproteins will also dramatically alter their properties. Since many viral proteins and oncogenes are acylated, these compounds represent a new class of potential antiviral and antineoplastic agents.” left out

[3] = C-18 reverse phase HPLC, FIG. 2
[4] = iodinated peptide 40 μM, 0.03% Triton X-100, FIG. 1

Row | Compound | Acyl CoA Vm (yeast NMT) | Elution Time [1] | Peptide Vm (yeast NMT) | also measured
1 | CCSCCCCCCCCCCC(=O)SCCNC(=O)CCNC(=O)[C@H](O)C(C)(C)COP(=O)(O)OP(=O)(O)OC[C@H]1O[C@@H](n2cnc3c(N)ncnc32)[C@H](O)[C@@H]1OP(=O)(O)O |  |  |  | substrate quality vs myristoyl CoA (wheat germ NMT; wheat germ NMT): at least as good a substrate for wheat germ NMT as myristoyl CoA itself
2 | 11-(ethylthio)undecanoyl-GNAASYRR[^125 I]: fatty acid analog acyl-peptide ({11‑(ethylthio)undecanoyl}-GNAAS[Tyr(125I)]RR) |  |  |  | elution earlier than the corresponding myristoyl peptide [1, 3]: 7 min; elution earlier than the corresponding myristoyl peptide ([1]; C-18 reverse phase HPLC, FIG. 2, listed as 11-(ethylthio)undecanoyl-GNAAS [^125 I]YRR): seven minutes earlier
3 | CCCCOCCCCCCCCCCC(=O)O [CH3 (CH2)3 O(CH2)10 COOH, 11-(1-Butoxy)undecanoic acid] | 80% | 19 min | 25% | effectiveness as substrate [2]: less effective than the analogs based on C13 -C14 fatty acids
4 | CCCCCCCCOCCCCC(=O)O [CH3 (CH2)7 O(CH2)4 COOH, 5-(octyloxy)pentanoic acid] |  | 16 min |  | 
5 | CCCCCCCCCCCCCC(=O)O [CH3 (CH2)12 COOH, myristic acid, reference compound] | 100% | 26 min | 100% | elution time of fatty acyl derivative of GNAAS[125I]YRR [1, 3]: 28 min; elution time of fatty acyl derivative of GNAAAARR [1]: 24 min
6 | CCSCCCCCCCCCCC(=O)O [CH3 CH2 S(CH2)10 COOH, 11-(Ethylthio)undecanoic acid] | 130% | 18 min | 98% | hydrophobicity ([1]; in words, vs myristic acid): decreases its hydrophobicity; also recorded: significantly different from that of myristic acid; effectiveness as substrate [2]: leaves intact its ability to act as a substrate; Km and Vmax vs C14:0 fatty acid (yeast NMT; 11,000-fold purified yeast NMT): indistinguishable from that of the C14:0 fatty acid; effect on the kinetic characteristics of the peptide substrate (wheat germ NMT; in words, vs myristic acid): did not significantly alter the kinetic characteristics of the peptide substrate; Km (as CoA ester), times higher than for myristate (wheat germ NMT; [4]): 1.5 times; Vmax (as CoA ester), times higher than for myristate (wheat germ NMT; [4]): 3.5 times; apparent maximal velocity, times higher than with myristic acid (wheat germ NMT; peptide substrate varied): 2.3 times
7 | CCCCCCCCCC(=O)O [decanoic acid, reference compound] |  |  |  | elution time of fatty acyl derivative of GNAAAARR [1]: 9 min
8 | CCCCCCCCCCCC(=O)O [dodecanoic acid, reference compound] |  |  |  | elution time of fatty acyl derivative of GNAAS[125I]YRR [1, 3]: 23 min; elution time of fatty acyl derivative of GNAAAARR [1]: 18 min
9 | CCCCCCCCCCCCCCCC(=O)O [palmitic acid, reference compound] |  |  |  | elution time of fatty acyl derivative of GNAAAARR [1]: 30 min
10 | Gly-Asn-Ala-Ala-Ser-[^125 I]Tyr-Arg-Arg [free peptide, reference compound] |  |  |  | elution of free peptide (void volume) [1, 3]: 3 to 5 min

Further lines, with some results ahead:

Row | Acyl CoA Vm (yeast NMT) | Elution Time [1] | Compound | Peptide Vm (yeast NMT) | also measured
11 | 250% |  | CCCOCCCCCCCCCC(=O)O [CH3 (CH2)2 O(CH2)9 COOH, 10-(Propoxy)decanoic acid] | 150% | 
12 | 250% | 18 min | CCCSCCCCCCCCCC(=O)O [CH3 (CH2)2 S(CH2)9 COOH, 10-(Propylthio)decanoic acid] |  | 
13 | 160% | 21 min | CCCCCCCCSCCCCC(=O)O [CH3 (CH2)7 S(CH2)4 COOH, 5-(Octylthio)pentanoic acid] |  | 
14 | 64% | 12 min | CCOCCCCCCCCCCC(=O)O [CH3 CH2 O(CH2)10 COOH, 11-(Ethoxy)undecanoic acid] | 62% | 
15 | 320% | 9 min | C#CCOCCCCCCCCCC(=O)O [HC≡CCH2 O(CH2)9 COOH, 10-(2-Propynoxy)decanoic acid] | 200% | 
